Columns and labels:
Format in all cases: in vivo
Details in all cases: wettable powder applied 3 days after transplanting, judged after 25 days
[1] = tested on: transplanted paddy-field rice; experiment: Test Example 1: crop injury against transplanted paddy-field rice
Method in brief: (§1)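 Paddy soil pots sown with dormancy-broken weed seeds mixed into the top 1 cm, plus germinated Cyperus serotinus tubers and transplanted 2.2-leaf rice seedlings, grown flooded in a greenhouse. Water-diluted wettable powder applied 3 days after transplanting; growth inhibition scored 25 days later on a 0–5 scale (0 = 0–10%, 5 = 91–100%).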

[2] = tested on: barnyardgrass (Echinochloa oryzicola Vasing.); experiment: Test Example 1: herbicidal effects, paddy-field pot test
Method in brief: as §1

[3] = tested on: annual broad-leaved weeds (Lindernia spp., Rotala indica); experiment: as above
Method in brief: as §1

[4] = tested on: Scirpus joncoides; experiment: as above
Method in brief: as §1

[5] = tested on: Cyperus serotinus; experiment: as above
Method in brief: as §1

Row | SMILES | Crop injury against transplanted rice ([1]; chemical dosage 12.5 g/a) | Crop injury against transplanted rice ([1]; chemical dosage 25 g/a) | Herbicidal effects Barnyard grass ([2]; chemical dosage 12.5 g/a) | Herbicidal effects Barnyard grass ([2]; chemical dosage 25 g/a) | Herbicidal effects Broad leaf ([3]; chemical dosage 12.5 g/a) | Herbicidal effects Broad leaf ([3]; chemical dosage 25 g/a) | Herbicidal effects Scirpus joncoides ([4]; chemical dosage 12.5 g/a) | Herbicidal effects Scirpus joncoides ([4]; chemical dosage 25 g/a) | Herbicidal effects Cyperus serotinus ([5]; chemical dosage 12.5 g/a) | Herbicidal effects Cyperus serotinus ([5]; chemical dosage 25 g/a) | Crop injury against transplanted rice ([1]; chemical dosage 10 g/a) | Crop injury against transplanted rice ([1]; chemical dosage 20 g/a) | Herbicidal effects Barnyard grass ([2]; chemical dosage 10 g/a) | Herbicidal effects Barnyard grass ([2]; chemical dosage 20 g/a) | Herbicidal effects Broad leaf ([3]; chemical dosage 10 g/a) | Herbicidal effects Broad leaf ([3]; chemical dosage 20 g/a) | Herbicidal effects Scirpus joncoides ([4]; chemical dosage 10 g/a) | Herbicidal effects Scirpus joncoides ([4]; chemical dosage 20 g/a) | Herbicidal effects Cyperus serotinus ([5]; chemical dosage 10 g/a) | Herbicidal effects Cyperus serotinus ([5]; chemical dosage 20 g/a)
1 | Cc1ccc(Cl)c(Oc2nnc(Cl)cc2O)c1 [Example 203] | 0 (Growth inhibition rate; 0 to 10%) | 0 (Growth inhibition rate; 0 to 10%) | 1 (Growth inhibition rate; 11 to 30%) | 2 (Growth inhibition rate; 31 to 50%) | 5 (Growth inhibition rate; 91 to 100%) | 5 (Growth inhibition rate; 91 to 100%) | 5 (Growth inhibition rate; 91 to 100%) | 5 (Growth inhibition rate; 91 to 100%) | 5 (Growth inhibition rate; 91 to 100%) | 5 (Growth inhibition rate; 91 to 100%) | – | – | – | – | – | – | – | – | – | –
2 | Cc1ccc(Cl)cc1Oc1nnc(Cl)cc1O [Example 204] | 0 (Growth inhibition rate; 0 to 10%) | 0 (Growth inhibition rate; 0 to 10%) | 2 (Growth inhibition rate; 31 to 50%) | 2 (Growth inhibition rate; 31 to 50%) | 5 (Growth inhibition rate; 91 to 100%) | 5 (Growth inhibition rate; 91 to 100%) | 5 (Growth inhibition rate; 91 to 100%) | 5 (Growth inhibition rate; 91 to 100%) | 5 (Growth inhibition rate; 91 to 100%) | 5 (Growth inhibition rate; 91 to 100%) | – | – | – | – | – | – | – | – | – | –
3 | Cc1ccc(C)c(Oc2nnc(Cl)cc2O)c1 [Example 205] | 0 (Growth inhibition rate; 0 to 10%) | 0 (Growth inhibition rate; 0 to 10%) | 0 (Growth inhibition rate; 0 to 10%) | 1 (Growth inhibition rate; 11 to 30%) | 5 (Growth inhibition rate; 91 to 100%) | 5 (Growth inhibition rate; 91 to 100%) | 5 (Growth inhibition rate; 91 to 100%) | 5 (Growth inhibition rate; 91 to 100%) | 5 (Growth inhibition rate; 91 to 100%) | 5 (Growth inhibition rate; 91 to 100%) | – | – | – | – | – | – | – | – | – | –
4 | Cc1ccc(C(C)C)c(Oc2nnc(Cl)cc2O)c1 [Example 212] | 0 (Growth inhibition rate; 0 to 10%) | 0 (Growth inhibition rate; 0 to 10%) | 1 (Growth inhibition rate; 11 to 30%) | 2 (Growth inhibition rate; 31 to 50%) | 5 (Growth inhibition rate; 91 to 100%) | 5 (Growth inhibition rate; 91 to 100%) | 5 (Growth inhibition rate; 91 to 100%) | 5 (Growth inhibition rate; 91 to 100%) | 5 (Growth inhibition rate; 91 to 100%) | 5 (Growth inhibition rate; 91 to 100%) | – | – | – | – | – | – | – | – | – | –
5 | Oc1cc(Cl)nnc1Oc1cc(F)ccc1C1CC1 [Example 216] | – | – | – | – | – | – | – | – | – | – | 0 (Growth inhibition rate; 0 to 10%) | 2 (Growth inhibition rate; 31 to 50%) | 4 (Growth inhibition rate; 71 to 90%) | 4 (Growth inhibition rate; 71 to 90%) | 5 (Growth inhibition rate; 91 to 100%) | 5 (Growth inhibition rate; 91 to 100%) | 5 (Growth inhibition rate; 91 to 100%) | 5 (Growth inhibition rate; 91 to 100%) | 5 (Growth inhibition rate; 91 to 100%) | 5 (Growth inhibition rate; 91 to 100%)
6 | Oc1cc(Cl)nnc1Oc1cc(Cl)ccc1C1CC1 [Example 217] | – | – | – | – | – | – | – | – | – | – | 0 (Growth inhibition rate; 0 to 10%) | 0 (Growth inhibition rate; 0 to 10%) | 2 (Growth inhibition rate; 31 to 50%) | 4 (Growth inhibition rate; 71 to 90%) | 5 (Growth inhibition rate; 91 to 100%) | 5 (Growth inhibition rate; 91 to 100%) | 5 (Growth inhibition rate; 91 to 100%) | 5 (Growth inhibition rate; 91 to 100%) | 5 (Growth inhibition rate; 91 to 100%) | 5 (Growth inhibition rate; 91 to 100%)
